Biological target: Mitogen-activated protein kinase kinase kinase kinase 1 (Homo sapiens, UniProt Q92918)
Test: Biochemical Enzyme Assay
Protocol: HPK1 biochemical enzyme assay: HPK1 enzyme inhibition was measured using a microfluidic mobility shift assay. […] Test compounds were titrated in ten point curves (top final assay concentration […]), and preincubated with enzyme/substrate mix for 30 min prior to initiation of the reaction by addition of ATP (1 mM final concentration) and substrate (1 μM final concentration; Carna Biosciences) diluted in assay buffer supplemented by MgCl2 (final assay concentration of 5 mM). Following 60 min incubation at RT, the reaction was terminated by addition of 60 µl/well termination buffer (Carna Biosciences) and signal determination using a Caliper EZ Reader (Perkin Elmer, UK).

Mitogen-activated protein kinase kinase kinase kinase 1, sequence (Q92918 whole entry): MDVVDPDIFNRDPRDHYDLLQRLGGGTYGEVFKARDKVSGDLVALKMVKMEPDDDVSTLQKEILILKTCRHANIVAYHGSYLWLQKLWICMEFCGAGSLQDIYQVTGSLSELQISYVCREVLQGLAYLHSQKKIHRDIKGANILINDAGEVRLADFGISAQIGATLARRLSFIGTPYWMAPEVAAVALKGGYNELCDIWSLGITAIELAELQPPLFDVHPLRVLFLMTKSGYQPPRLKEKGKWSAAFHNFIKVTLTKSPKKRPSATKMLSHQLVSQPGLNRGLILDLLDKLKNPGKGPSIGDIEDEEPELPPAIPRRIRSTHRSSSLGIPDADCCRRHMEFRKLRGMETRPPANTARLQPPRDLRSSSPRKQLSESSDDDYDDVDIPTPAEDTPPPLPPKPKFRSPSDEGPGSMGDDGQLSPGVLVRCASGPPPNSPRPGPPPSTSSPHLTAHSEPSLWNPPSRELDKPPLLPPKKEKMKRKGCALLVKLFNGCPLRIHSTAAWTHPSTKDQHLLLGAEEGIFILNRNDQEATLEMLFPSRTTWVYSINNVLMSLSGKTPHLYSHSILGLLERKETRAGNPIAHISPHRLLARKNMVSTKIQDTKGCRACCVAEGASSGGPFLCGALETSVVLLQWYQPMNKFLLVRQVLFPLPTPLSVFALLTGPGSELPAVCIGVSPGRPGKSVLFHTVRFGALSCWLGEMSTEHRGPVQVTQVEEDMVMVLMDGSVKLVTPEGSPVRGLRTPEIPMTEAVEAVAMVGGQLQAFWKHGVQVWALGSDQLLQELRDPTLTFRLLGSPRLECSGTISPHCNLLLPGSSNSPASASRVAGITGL

IC50, < 100 nM:
CN[C@@H]1CCCN(c2ccc(Nc3ccc(-c4ccnc5c4c(C)cn5C)c4c3C(=O)NC4)nc2)C1 [US11078201, Compound I-100]
Cn1cnc2c(-c3ccc(Nc4ccc(N5CCNCC5)cn4)c4c3CNC4=O)ccnc21 [US11078201, Compound I-122]
CN1CCN(C2=CNC(Nc3cnc(-c4c(-c5ccccc5)[nH]c5ccccc45)c4c3C(=O)NC4)C=C2)CC1 (stereo unspecified) [US11078201, Compound I-141]
O=C1NCc2c(-c3cnn4nccnc34)ccc(Nc3ccc(N4CCC(O)CC4)cn3)c21 [US11078201, Compound I-157]
O=C1NCc2c(-c3cnc4cc(F)ccn34)ccc(Nc3ccc(N4C[C@@H]5CC[C@@H](C5)C4)cn3)c21 [US11078201, Compound I-404]
O=C1NCc2c(-c3cnc4cc(F)ccn34)ccc(Nc3ccc(N4CC5CCC(C5)C4)cn3)c21 [US11078201, Compound I-405]
CN1C=CC2=C(c3ncc(Nc4cccc(N5CC[C@H]6CNC[C@H]65)n4)c4c3CNC4=O)C=CNC21 (stereo partly specified) [US11078201, Compound I-440]
Cn1ccc2c(-c3ncc(NC4C=CC(C5CCOC5)=C(CN5CCCC5)N4)c4c3CNC4=O)ccnc21 (stereo unspecified) [US11078201, Compound I-552]
CO[C@@H]1CN(c2ccc(Nc3ccc(-c4cnn5c4CCCC5)c4c3C(=O)NC4)nc2)[C@@H](CO)CO1 [US11078201, Compound I-571]
CN(C)Cc1nc(Nc2ccc(-c3cnc4cc(F)ccn34)c3c2C(=O)NC3)ccc1C1CC[C@@H](F)[C@H](O)C1 (stereo partly specified) [US11078201, Compound I-700]
CN(C)Cc1nc(Nc2ccc(-c3cnc4cc(F)ccn34)c3c2C(=O)NC3)ccc1C1CC[C@H](F)[C@@H](O)C1 (stereo partly specified) [US11078201, Compound I-701]

Reference: BindingDB's records for patent US11078201 (Nimbus Saturn, 2021)
